The record followed here is US10118893B2, “Method of making complex nano particles and using the same to reduce cell viability” (Umm Al-Qura University, priority 2014, dated 2018).

Data set [1] in a line: Critical micelle concentration (CMC) and surface parameters of the surfactants. Format: physicochemical. Also noted: PC20: unit not given here. The source says:
That fact could be explained from the unique property of the metal complexes in water. That is the complexes retain its unity in their solutions, which increased their volume in the aqueous media and then repulsion is occurred between the hydrophobic chain and water molecules. […] The efficiency “PC20” increase with increasing molar ratio of methylene units. These due to the fact that the efficiency of adsorption at interfaces increase linearly with increase in the carbon atoms in hydrophobic group. In case of the prepared parent cationic surfactants by increasing the number methylene units Maximum surface excess Γmax increases, this due to migration of molecules to the water-air interface. The consequence increase of Γmax leads to crowdiness occurred at the interface which causing decrease in Minimum area per molecule Amin values. That is due to the minimum surface area decrease with increasing the hydrophobic chain length of the synthesized surfactant molecules. The standard free energies of micellization ΔG° mic and adsorption ΔG° ads values are always negative indicating the spontaneously of these two processes but there is more increase in negativity of ΔG° ads rather than those of micellization indicating the tendency of the molecules to be adsorbed at the interface.

Data set [2] has as its system Ehrlich ascites carcinoma (EAC) cells. Description: Antitumor activity using Ehrlich ascites carcinoma (EAC), in vitro percentage of nonviable cells. As to conditions: NVC %. Format: cell-based, mice. As for the experimental part:
(§1) Olylammonium hydrogen selenites hydrogen selenite with its cobalt and platinum complexes were investigated as potential selective, anticancer prodrugs. They were tested by using Ehrlich Acites Carcinoma (EAC) as a model system of mice cell tumor. These compounds were also Tested in vitro on human […] monolayer tumor cell lines: MCF7 (Breast carcinoma), HEPG2 (liver carcenoma), U 251 ([…]) and HCT116 (colon carcinoma).
Ehrlich ascites carcinoma cells as a model system was based on the finding that it is excellent tool for studying the biological behavior of malignant tumors and drug action with cells. A line of Ehrlich ascites carcinoma (EAC) which used in the present study had been kindly supplied from National Cancer Institute, Cairo, Egypt, and maintained in female Swiss albino mice through weekly […] transplantation of 2.5×10^6 tumor cells/mouse. EAC cells were obtained by needle aspiration with aseptic condition. The ascetic fluid was diluted with sterile saline so that 0.1 ml contains 2.5×10^6 cells counted microscopically using a haemocytometer. In vitro studying of these compounds antitumor activity was determined according to the percentage of nonviable cells (NVC %) which was calculated by the following equation NVC %=[number of NVC/total number of cells][…].

For the next data set, the system named is HELA. Description: Cytotoxic activity on human tumor cell line HELA. Format: cell-based. As to conditions: dose to reduce survival to 50%. On the procedure:
as §1
(§2) The results of the cytotoxic activity on human tumor cell lines were determined according to the dose values of drug exposure for cell lines to reduce survival to 50% (Ic50). The experimental results recorded in Table (3).

Another data set concerns MCF7 (Breast carcinoma). Description: Cytotoxic activity on human tumor cell line MCF7. Format: cell-based. As to conditions: dose to reduce survival to 50%. On the procedure:
as §1, §2

For the next data set, the system named is HEPG2 (liver carcenoma). Description: Cytotoxic activity on human tumor cell line HEPG2. The following applies: dose to reduce survival to 50%. Format: cell-based. On the procedure:
as §1, §2

Another data set deals with HCT116 (colon carcinoma). Description: Cytotoxic activity on human tumor cell line HCT116. Format: cell-based. As to conditions: dose to reduce survival to 50%. On the procedure:
as §1, §2

Data set [3] concerns sulphur reducing bacteria. Description: Antibacterial activity against sulphur reducing bacteria, inhibition zone. Format: cell-based. The source says:
The results of the synthesized cationic surfactants against sulphur reducing bacteria recorded in Table 4.

`CCCCCCCC/C=C\CCCCCCCCN.O=[Se](O)O` [IIa, olylammonium hydrogen selenite]: in data set [1], the “Δ Gads/Amin” value is −46.8. The same molecule registered a ΠCMC in data set [1] of 39 mN/m. The “CMC × 10−3” value in data set [1] (critical micelle concentration, values × 10−3) was determined as 1.3. The same molecule gave a PC20 in data set [1] (efficiency) of 3.8. Also, in data set [1] (maximum surface excess, values × 10−11), the “Γmax × 10−11” value is 10.6 Mole/cm^2. The same molecule returned an A min in data set [1] (minimum area per molecule) of 1.6 nm2. The “Δ Gads” value in data set [1] (standard free energy of adsorption) is −67.7. Moreover, the “Δ Gmic” value in data set [1] (standard free energy of micellization) is −34.1. This molecule also had a γCMC in data set [1] (surface tension at CMC) of 33 mN/m. The Percent nonviable cells is 10% in data set [2] (Conc. 25 μg/ml), 20% in data set [2] (Conc. 50 μg/ml) and 40% in data set [2] (Conc. 100 μg/ml). Besides, in the data set on HELA, the “HELA (IC50)” value was “does not reach to Ic50”. Further, the “MCF7 (IC50)” value with MCF7 (Breast carcinoma) is “does not reach to Ic50”. The “HEPG2 (IC50)” value with HEPG2 (liver carcenoma) is reported as “does not reach to Ic50”. The “HCT116 (IC50)” value with HCT116 (colon carcinoma) is “does not reach to Ic50”. The Inhibition zone diameter in data set [3] is recorded as 25 mm/mg sample.
